Assay results as given in ChEMBL document CHEMBL1201862, “PubChem BioAssay data set” (2004).
Activity calls are given as the source filed them.

Key:
[1] = Luminescence Cell-Based Dose Retest to Confirm Inhibitors of Cancer Stem Cells. [Related pubchem assays (depositor defined):AID2717, AID2721]; assay type: functional; conditions: Homo sapiens
[2] = viability loss of HMLE_sh_eGFP cells – cell-based, luminescence, counter-screen for HMLE_sh_ECad selective toxicity project, dose response (AID 463074); assay type: functional, Homo sapiens;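 also: HMLE human mammary epithelial cells expressing control shRNA against eGFP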
Cytochrome P450 2D6 = Cytochrome P450 2D6 (Homo sapiens, UniProt P10635);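 also: CYP2D6 member of a cytochrome P450 panel assay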
Sequence of Cytochrome P450 2D6 (P10635 whole entry, the tested form may be a part): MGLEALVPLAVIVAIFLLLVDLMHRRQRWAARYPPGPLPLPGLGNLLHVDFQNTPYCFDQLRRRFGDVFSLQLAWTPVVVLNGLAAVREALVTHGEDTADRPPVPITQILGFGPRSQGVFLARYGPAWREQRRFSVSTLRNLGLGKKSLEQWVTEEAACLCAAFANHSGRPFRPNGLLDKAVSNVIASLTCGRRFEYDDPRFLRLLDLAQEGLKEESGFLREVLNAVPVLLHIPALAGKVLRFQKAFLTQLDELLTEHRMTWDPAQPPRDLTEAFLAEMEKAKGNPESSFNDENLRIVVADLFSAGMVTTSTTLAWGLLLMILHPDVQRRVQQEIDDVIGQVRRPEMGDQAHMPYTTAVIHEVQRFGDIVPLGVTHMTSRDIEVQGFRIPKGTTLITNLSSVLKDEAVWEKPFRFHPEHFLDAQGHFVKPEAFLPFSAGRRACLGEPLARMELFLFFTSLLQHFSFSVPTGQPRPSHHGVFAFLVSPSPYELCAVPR

Hexokinase-1 = target: T1, Hexokinase-1 (Homo sapiens, UniProt P19367); assay: SAR analysis of small molecule inhibitors of hexokinase domain containing I (HKDC1) in the hexokinase 1 selectivity assay. [Related pubchem assays (depositor defined):AID493160, AID493190]; assay type: functional
T1 sequence (P19367 whole entry): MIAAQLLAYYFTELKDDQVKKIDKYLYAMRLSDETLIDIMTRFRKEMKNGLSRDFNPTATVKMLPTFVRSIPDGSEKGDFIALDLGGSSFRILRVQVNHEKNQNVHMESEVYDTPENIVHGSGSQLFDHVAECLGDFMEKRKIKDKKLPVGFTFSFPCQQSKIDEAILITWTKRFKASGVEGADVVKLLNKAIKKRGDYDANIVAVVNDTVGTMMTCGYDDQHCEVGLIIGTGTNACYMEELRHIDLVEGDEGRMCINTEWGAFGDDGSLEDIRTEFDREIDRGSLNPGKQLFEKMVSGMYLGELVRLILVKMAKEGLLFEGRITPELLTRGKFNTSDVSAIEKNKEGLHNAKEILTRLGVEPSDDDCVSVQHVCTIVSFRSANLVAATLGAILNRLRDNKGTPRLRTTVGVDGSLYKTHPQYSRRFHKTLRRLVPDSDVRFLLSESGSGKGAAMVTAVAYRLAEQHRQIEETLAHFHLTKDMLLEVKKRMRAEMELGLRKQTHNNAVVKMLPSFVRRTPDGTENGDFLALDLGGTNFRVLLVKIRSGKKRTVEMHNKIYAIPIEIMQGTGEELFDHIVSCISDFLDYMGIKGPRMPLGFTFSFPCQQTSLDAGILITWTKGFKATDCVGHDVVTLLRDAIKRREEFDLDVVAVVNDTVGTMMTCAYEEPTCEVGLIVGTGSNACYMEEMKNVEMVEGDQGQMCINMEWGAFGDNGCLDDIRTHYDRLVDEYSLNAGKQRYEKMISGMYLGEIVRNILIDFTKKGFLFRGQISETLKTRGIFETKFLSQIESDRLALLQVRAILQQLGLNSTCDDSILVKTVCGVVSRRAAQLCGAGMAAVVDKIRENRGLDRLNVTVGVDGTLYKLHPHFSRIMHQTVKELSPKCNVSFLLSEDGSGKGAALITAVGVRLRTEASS

Hexokinase HKDC1 = target: T2, Hexokinase HKDC1 (Homo sapiens, UniProt Q2TB90); assay: SAR analysis of small molecule inhibitors of hexokinase domain containing I (HKDC1). [Related pubchem assays (depositor defined):AID493160, AID493190]; assay type: functional
T2 sequence (Q2TB90 whole entry): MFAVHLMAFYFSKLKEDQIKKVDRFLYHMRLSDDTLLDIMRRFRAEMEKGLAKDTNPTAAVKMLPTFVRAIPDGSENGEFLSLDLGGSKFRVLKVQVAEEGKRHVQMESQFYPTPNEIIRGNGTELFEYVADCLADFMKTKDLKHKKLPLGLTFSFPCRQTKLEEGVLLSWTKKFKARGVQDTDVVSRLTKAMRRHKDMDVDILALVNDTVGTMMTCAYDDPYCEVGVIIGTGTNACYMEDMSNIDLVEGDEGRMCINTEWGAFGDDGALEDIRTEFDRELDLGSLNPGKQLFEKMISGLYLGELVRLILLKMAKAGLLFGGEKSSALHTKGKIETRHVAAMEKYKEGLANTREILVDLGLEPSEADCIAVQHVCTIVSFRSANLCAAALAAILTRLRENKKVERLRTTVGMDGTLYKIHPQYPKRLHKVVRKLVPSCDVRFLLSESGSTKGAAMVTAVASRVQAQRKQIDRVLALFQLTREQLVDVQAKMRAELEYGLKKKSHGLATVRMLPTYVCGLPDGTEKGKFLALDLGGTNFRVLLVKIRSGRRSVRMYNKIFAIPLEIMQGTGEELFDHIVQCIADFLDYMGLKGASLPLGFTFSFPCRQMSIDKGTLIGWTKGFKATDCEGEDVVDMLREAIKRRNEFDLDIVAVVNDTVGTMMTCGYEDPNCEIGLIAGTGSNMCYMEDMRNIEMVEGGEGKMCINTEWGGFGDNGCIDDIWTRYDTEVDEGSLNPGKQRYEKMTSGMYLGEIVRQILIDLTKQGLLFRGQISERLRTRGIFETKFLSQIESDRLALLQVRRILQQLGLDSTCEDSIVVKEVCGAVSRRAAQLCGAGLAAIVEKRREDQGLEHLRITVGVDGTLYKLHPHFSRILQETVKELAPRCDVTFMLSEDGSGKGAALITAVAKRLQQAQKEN

[3] = NIH-3T3 fibroblast cytotoxicity, dose response, cytotoxicity control, cell-based, fluorescence, Alamar Blue, secondary assay (AID 2327); assay type: functional;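 also: NIH-3T3 mouse fibroblasts cultured with fluconazole at 8 µg/mL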
Beta-galactosidase = Beta-galactosidase (Escherichia coli, UniProt Q8VNN2); assay: PubChem AID 485352; assay type: functional
Sequence of Beta-galactosidase (Q8VNN2 whole entry): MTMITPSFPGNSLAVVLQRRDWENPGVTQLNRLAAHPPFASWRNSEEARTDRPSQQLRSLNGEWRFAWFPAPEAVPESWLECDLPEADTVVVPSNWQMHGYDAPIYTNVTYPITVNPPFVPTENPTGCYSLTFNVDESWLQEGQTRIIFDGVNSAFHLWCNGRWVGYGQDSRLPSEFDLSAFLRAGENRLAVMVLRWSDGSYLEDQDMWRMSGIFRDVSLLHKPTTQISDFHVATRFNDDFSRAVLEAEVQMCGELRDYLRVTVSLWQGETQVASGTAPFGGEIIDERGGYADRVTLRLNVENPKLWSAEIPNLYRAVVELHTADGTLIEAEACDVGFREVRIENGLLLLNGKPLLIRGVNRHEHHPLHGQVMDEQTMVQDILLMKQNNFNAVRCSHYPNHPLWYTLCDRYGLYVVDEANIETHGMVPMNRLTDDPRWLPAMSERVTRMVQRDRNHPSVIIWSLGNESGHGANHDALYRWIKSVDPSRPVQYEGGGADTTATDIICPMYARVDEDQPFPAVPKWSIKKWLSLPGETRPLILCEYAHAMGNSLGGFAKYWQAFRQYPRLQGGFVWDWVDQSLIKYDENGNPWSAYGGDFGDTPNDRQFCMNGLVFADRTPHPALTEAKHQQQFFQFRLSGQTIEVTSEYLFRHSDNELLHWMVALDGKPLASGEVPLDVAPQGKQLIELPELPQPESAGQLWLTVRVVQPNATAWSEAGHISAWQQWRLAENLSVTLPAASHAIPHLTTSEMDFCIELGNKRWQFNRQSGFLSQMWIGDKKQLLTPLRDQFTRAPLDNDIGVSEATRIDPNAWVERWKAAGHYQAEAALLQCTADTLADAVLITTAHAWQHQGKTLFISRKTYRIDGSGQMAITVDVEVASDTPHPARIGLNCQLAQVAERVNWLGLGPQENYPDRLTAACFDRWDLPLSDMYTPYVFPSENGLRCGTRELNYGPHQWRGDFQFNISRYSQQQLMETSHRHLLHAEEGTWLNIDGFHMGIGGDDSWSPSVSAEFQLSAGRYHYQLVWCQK

[4] = fluconazole-exposed Candida albicans growth modulators – fluorescence, retest, confirmation (AID 2467); assay type: functional, cell-based
[5] = target: T3, Type-1 angiotensin II receptor (Homo sapiens, UniProt P30556); assay: antagonism of angiotensin II type 1 receptor – cell-based, uHTS hits, selectivity assay for APJ receptor antagonist project, dose response (AID 463214); assay type: functional;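 also: antagonist potency against angiotensin II stimulated AT1 response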
T3 sequence (P30556 whole entry): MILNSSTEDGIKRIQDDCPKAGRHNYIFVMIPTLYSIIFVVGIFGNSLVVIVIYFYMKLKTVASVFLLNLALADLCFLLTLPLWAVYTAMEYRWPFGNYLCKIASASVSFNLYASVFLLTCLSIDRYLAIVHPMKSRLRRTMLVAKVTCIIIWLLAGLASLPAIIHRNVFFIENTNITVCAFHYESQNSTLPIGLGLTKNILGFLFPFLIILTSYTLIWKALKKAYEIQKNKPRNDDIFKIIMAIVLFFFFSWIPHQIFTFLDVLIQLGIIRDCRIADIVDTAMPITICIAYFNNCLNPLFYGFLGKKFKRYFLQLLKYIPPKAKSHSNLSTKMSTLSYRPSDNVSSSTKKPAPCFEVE

[6] = target: Serine/threonine-protein phosphatase (Candida dubliniensis (strain CD36 / CBS 7987 / NCPF 3949 / NRRLY-17841) (Yeast), UniProt B9W6M3); assay: blockers of CaCl2-induced CDRE-lacZ signaling – S. cerevisiae, luminescence, secondary, dose response (AID 2388); assay type: functional, cell-based;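 also: yeast reporter cells carrying a calcineurin-responsive lacZ construct stimulated with calcium chloride; luminescent beta-galactosidase reporter signal in whole cells rather than isolated phosphatase activity; potency for inhibition where a drop in reporter signal means calcineurin blockade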
Sequence of Serine/threonine-protein phosphatase (B9W6M3 whole entry): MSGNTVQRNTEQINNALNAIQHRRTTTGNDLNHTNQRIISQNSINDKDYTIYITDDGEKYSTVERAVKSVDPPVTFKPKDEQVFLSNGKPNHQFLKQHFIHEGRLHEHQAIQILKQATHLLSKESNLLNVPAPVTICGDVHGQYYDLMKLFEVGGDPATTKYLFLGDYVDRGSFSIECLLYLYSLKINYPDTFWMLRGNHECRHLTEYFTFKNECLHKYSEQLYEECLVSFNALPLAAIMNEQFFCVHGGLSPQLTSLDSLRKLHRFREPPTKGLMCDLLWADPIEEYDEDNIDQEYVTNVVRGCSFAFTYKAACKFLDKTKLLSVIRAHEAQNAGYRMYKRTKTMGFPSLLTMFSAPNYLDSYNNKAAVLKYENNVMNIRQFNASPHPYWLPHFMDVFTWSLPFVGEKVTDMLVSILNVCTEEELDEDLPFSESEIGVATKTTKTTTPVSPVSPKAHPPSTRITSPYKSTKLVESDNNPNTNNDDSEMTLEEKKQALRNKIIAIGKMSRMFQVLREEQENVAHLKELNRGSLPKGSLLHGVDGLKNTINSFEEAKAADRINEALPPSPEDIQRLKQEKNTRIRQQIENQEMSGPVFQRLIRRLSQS

[7] = target: ATP-dependent molecular chaperone HSP82 (Candida albicans (strain WO-1) (Yeast), UniProt C4YTQ8); assay: steroid-induced GRE reporter decrease in yeast – S. cerevisiae, luminescence, Hsp90 inhibitor project, dose response (AID 2400); assay type: functional, cell-based;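 also: beta-galactosidase luminescence from glucocorticoid response element reporter as proxy for Hsp90 function; inhibitor potency where signal loss means Hsp90 inhibition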
Sequence of ATP-dependent molecular chaperone HSP82 (C4YTQ8 whole entry): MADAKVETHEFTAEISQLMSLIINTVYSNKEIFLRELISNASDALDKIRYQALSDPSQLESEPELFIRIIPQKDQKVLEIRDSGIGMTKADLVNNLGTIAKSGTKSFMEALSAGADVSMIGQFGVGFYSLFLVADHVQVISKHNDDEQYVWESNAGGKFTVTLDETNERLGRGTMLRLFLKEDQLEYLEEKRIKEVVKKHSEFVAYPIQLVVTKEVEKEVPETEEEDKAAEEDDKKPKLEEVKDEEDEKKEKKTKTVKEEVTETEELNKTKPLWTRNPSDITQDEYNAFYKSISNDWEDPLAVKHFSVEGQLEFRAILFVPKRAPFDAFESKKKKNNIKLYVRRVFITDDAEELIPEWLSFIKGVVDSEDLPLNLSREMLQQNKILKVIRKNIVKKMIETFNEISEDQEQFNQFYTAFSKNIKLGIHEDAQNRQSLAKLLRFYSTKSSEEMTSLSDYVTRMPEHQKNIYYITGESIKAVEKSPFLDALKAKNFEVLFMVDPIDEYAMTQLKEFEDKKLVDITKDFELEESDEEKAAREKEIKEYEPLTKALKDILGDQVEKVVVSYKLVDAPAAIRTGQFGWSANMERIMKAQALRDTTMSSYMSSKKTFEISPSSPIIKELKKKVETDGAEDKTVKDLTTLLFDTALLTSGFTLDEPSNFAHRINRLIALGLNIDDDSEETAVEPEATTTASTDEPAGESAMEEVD

[8] = target: T4, Polyadenylate-binding protein 1 (Homo sapiens, UniProt P11940); assay: MLLE binding blockers, Cy5 peptide tracer – biochemical, fluorescence polarization, Cy5-PAM2 peptide, secondary, miRNA deadenylation inhibitor project, dose response (AID 602260); assay type: functional; conditions: read-out: IC50_Mean
T4 sequence (P11940 whole entry, the tested form may be a part): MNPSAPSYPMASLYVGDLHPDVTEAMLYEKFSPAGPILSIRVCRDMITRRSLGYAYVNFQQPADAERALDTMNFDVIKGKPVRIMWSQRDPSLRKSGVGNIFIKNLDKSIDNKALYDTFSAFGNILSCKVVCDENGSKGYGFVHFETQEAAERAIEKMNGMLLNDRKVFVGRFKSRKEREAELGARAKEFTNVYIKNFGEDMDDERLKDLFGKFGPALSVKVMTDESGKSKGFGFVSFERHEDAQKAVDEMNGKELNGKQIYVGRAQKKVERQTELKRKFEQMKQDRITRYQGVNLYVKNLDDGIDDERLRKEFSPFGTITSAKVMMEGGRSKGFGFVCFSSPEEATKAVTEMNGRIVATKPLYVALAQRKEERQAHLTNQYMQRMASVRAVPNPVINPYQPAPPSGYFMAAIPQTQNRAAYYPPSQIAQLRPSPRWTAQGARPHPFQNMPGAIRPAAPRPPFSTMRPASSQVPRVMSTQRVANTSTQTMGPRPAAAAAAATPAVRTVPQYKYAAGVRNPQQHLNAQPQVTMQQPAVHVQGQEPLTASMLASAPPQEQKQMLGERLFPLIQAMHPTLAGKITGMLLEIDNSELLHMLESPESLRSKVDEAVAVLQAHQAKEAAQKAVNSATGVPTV

[9] = target: T4, Polyadenylate-binding protein 1; assay: MLLE domain peptide-binding blockers, IC50 – biochemical, fluorescence polarization, FITC-PAM2 peptide, dose response (AID 602259); assay type: functional; conditions: read-out: IC50_Mean
Escherichia coli = assay: microbe, parasite or virus in culture
[10] = Trypanosoma cruzi growth suppression in host cells – NIH3T3 host cells, beta-gal luminescence, confirmation (AID 2044); assay type: functional, cell-based;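 also: intracellular parasites grown in NIH/3T3 mouse fibroblasts as host cells; luminescent beta-galactosidase reporter signal from transgenic T. cruzi replicating inside host cells; inhibitors lower the luminescence signal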
[11] = microbe, parasite or virus in culture; assay type: functional; conditions: Mycobacterium tuberculosis
[12] = NIH3T3 cell viability loss – ATP luminescence, mouse fibroblasts, counter-screen, dose response (AID 2010); assay type: functional, cell-based;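 also: cells exposed to compound for about 90 hours before reading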
HEK293 [13] = assay: inhibition of NOD1-driven NF-kB reporter – cell-based, luminescence, uHTS, primary screen (AID 1578); assay type: functional; conditions: Homo sapiens
HEK293 [14] = assay: cells; assay type: functional, cell-based; conditions: Homo sapiens
HEK293 [15] = assay: cells; assay type: functional, cell-based; conditions: Homo sapiens; remark: listed apart in the source
HEK293 [16] = assay: NOD2 signaling inhibitors in MDP-stimulated cells, cell-based, uHTS, luminescence (AID 2001); assay type: functional; conditions: Homo sapiens
[17] = viability of PTEN-deleted HCT116 cells – cell-based, HCT116 PTEN knockout, dose response (AID 1047); assay type: functional;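 also: HCT116 colon tumor cells with PTEN knocked out; cells exposed to compound for 60 hours before readout; potency for loss of cell viability measured by luminescence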
[18] = viability of HCT116 lacking mutant beta-catenin – cell-based, human colon tumor, dose response (AID 1045); assay type: functional;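 also: HCT116 colon tumor cells with beta catenin knocked out; cells exposed to compound for 60 hours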
[19] = target: T5, Apoptotic protease-activating factor 1 (Homo sapiens, UniProt O14727); assay type: functional
T5 sequence (O14727 whole entry): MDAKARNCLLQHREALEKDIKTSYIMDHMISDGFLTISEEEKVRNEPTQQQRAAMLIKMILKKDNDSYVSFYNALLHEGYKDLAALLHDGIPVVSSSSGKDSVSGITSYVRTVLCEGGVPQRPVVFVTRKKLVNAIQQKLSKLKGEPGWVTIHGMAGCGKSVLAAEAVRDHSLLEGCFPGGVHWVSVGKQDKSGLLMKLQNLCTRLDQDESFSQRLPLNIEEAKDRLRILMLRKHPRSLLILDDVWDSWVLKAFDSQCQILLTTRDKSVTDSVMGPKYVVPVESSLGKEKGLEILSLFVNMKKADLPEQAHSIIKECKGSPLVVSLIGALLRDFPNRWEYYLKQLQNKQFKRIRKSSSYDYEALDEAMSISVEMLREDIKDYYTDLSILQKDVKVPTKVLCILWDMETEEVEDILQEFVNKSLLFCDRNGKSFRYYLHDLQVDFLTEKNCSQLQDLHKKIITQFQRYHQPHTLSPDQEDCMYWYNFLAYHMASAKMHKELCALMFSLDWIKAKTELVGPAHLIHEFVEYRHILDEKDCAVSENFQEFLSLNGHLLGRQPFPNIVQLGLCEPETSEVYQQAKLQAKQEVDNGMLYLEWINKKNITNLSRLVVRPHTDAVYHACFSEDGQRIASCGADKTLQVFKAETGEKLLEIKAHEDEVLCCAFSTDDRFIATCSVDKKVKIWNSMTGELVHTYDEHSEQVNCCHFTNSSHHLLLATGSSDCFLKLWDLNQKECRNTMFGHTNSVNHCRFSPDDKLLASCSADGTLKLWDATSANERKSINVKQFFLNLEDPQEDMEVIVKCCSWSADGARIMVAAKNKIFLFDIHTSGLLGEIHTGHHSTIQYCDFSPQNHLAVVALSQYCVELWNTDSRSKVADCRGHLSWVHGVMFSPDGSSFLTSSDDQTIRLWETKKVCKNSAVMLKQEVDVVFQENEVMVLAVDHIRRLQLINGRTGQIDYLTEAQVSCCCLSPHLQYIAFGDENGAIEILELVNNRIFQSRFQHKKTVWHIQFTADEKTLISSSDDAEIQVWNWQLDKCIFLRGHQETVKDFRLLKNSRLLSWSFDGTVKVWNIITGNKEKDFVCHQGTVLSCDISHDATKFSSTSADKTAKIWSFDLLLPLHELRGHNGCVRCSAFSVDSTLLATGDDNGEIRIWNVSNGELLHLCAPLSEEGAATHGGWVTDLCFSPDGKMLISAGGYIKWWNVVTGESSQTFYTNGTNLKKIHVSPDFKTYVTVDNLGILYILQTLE

INS1 = assay: INS-1E survival protection against cytokine death – cell-based, luminescence, retest, dose response (AID 449756); assay type: functional; conditions: Rattus norvegicus;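 also: cell death triggered by IL-1 beta plus TNF-alpha plus IFN-gamma mixture; protective hits raise ATP signal compared with cytokine alone wells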
Cytochrome P450 2C19 = Cytochrome P450 2C19 (Homo sapiens, UniProt P33261); assay: Cytochrome panel assay with activity outcomes. Panel member name: p450-cyp2c19 Compounds with AC50 equal or less than 10 uM are considered active; assay type: functional
Sequence of Cytochrome P450 2C19 (P33261 whole entry): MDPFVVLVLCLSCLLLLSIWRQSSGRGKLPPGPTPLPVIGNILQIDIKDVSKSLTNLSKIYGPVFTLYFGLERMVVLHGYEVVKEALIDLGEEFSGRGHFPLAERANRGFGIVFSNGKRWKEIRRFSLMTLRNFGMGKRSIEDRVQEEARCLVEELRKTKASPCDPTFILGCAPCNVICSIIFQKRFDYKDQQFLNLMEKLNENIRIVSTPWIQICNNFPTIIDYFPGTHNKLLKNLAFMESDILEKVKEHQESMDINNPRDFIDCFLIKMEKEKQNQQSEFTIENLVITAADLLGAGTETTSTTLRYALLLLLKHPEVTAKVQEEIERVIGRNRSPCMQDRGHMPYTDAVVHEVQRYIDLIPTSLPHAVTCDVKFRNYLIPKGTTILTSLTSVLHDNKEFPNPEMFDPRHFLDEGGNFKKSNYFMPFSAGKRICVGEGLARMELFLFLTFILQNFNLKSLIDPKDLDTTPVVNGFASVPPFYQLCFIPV

CC1CCN(C2=NN3C(=N)/C(=C\c4ccc(OC(=O)c5ccco5)cc4)C(=O)N=C3S2)CC1
AC50 [1]: 14.6 µM (active)
AC50 [2]: 25.4 µM (active)

Cl.N=C(N)N/N=C\c1cnn(C(=N)N)c1
AC50 (Cytochrome P450 2D6): inconclusive

O=C(CSc1nc2ccccc2[nH]1)Nc1cccc(S(=O)(=O)N2CCOCC2)c1
IC50 (Hexokinase-1): > 80 µM (inactive)
IC50 (Hexokinase HKDC1): > 80 µM (inactive)

Cc1cc(O)ccc1NC(=S)NC(=O)c1cncc(Br)c1
EC50 [3]: > 160 µM (inconclusive)
EC50 (Beta-galactosidase): > 40 µM (inactive)
EC50 [4]: 1.05 µM (active)
IC50 [5]: 10.5 µM (active)
EC50 [6]: > 180 µM (inactive)
EC50 [7]: > 160 µM (inactive)
IC50 [8]: > 66 µM (inactive)
IC50 [9]: > 66 µM (inactive)

CC(C)(C)CC(=O)Nc1cccc(-c2cn3cccnc3n2)c1
AC50 (Escherichia coli): 45.2 µM (active)

CCOc1ccc(/C=C/C2=CC(C)(C)NC(S)=N2)cc1
EC50 [3]: 17.1 µM (active)
EC50 [4]: 1.95 µM (active)
EC50 [6]: > 180 µM (inactive)
EC50 [7]: > 150 µM (inactive)

CN(C)S(=O)(=O)c1cccc(NC(=O)CSc2cccc3cccnc23)c1
EC50 [10]: 0.802 µM (active)
CC50 [11]: > 40 µM (active)
EC50 [12]: 4.3 µM (active)
AC50 [1]: 12.6 µM (active)
AC50 [2]: 36.2 µM (active)

CCCCCCc1cc2cc(-c3nnc(-c4ccccc4O)o3)c(=O)oc2cc1O
EC50 (HEK293 [13]): 4.51 µM (active)
IC50 (HEK293 [14]): 3.37 µM (active)
IC50 (HEK293 [15]): > 20 µM (inactive)
IC50 (HEK293 [16]): 4.36 µM (inactive)
EC50 [17]: 13 µM (active)
EC50 [18]: 11.2 µM (active)
IC50 [19]: 89 µM (active)
AC50 (INS1): 7.17 µM (active)

Cc1ccc(Cn2c(/C=C/c3cccnc3)nc3ccccc3c2=O)cc1
IC50 (Hexokinase-1): > 80 µM (inactive)
IC50 (Hexokinase HKDC1): > 80 µM (inactive)

O=C(O)CCCc1ccc2ccc3ccccc3c2c1
AC50 (Cytochrome P450 2C19): inconclusive
AC50 (Cytochrome P450 2D6): inconclusive
